# Measurements as given in PMC12527034, “R103 and R115 Affinity Mutants of ATeam ATP Biosensors” (Sensors (Basel, Switzerland), 2025).
# How the values were obtained:
# ATeam3.10 R103E/R115E [1] = biological target: T1, ATeam3.10 R103E/R115E (Bacillus sp. PS3, UniProt A0A0M5MQR7, R103E/R115E); experiment: biochemical; parameters: gene uncC; details: n = 4
# Protocol: Assays were carried out at room temperature with 0.125 µM protein in assay buffer (50 mM MOPS-KOH, pH 7.3, 50 mM KCl, 0.5 mM MgCl2, 0.05% Triton-X100). ATP stocks were neutralized to pH 7, and a total MgCl2 concentration was added to maintain 0.5 mM free Mg^2+ [21]. Samples were prepared in clear-bottom, black 96-well plates (Greiner Bio-One, Monroe, NC, USA). Sensor protein and ATP at a concentration dictated by each point on the dose–response curve were added to a single well with assay buffer and allowed to equilibrate. Samples were measured with n = 4 to 9 replicates. Steady-state fluorescence was measured on a BioTek Synergy H4 using 420/50 nm excitation and 485/20 nm or 528/20 nm emission bandpass filters (BioTek, Winooski, VT, USA). Donor fluorescence lifetimes were measured using an Edinburgh Instruments FS5+ time-resolved fluorometer with an NKT-Fianium WhiteLaseMicro supercontinuum pulsed laser (Edinburgh Instruments, Livingston, UK). Donor fluorescence lifetime distribution analysis was carried out using the MemExp software [22, 23, 24].
# ADP dose responses were measured using purified protein in solution. FRET ratios were calculated as sensitized acceptor emission-to-donor emission ratios. […] ADP dose response curves for (C) single and (D) double mutants.
# ATeam3.10 R103E [2] = biological target: T2, ATeam3.10 R103E (Bacillus sp. PS3, UniProt A0A0M5MQR7, R103E); experiment: Steady-state FRET ratio ADP dose response of 0.125 uM purified ATeam3.10 sensor at room temperature in 50 mM MOPS-KOH pH 7.3, 50 mM KCl, 0.5 mM MgCl2, 0.05% Triton-X100 (4 to 9 replicates).; format: binding; details: n = 4
# T2 construct: gene uncC; epsilon subunit flanked by mseCFP and mVenus; polyhistidine-tagged
# T2 sequence (A0A0M5MQR7 entry or part of it R103E): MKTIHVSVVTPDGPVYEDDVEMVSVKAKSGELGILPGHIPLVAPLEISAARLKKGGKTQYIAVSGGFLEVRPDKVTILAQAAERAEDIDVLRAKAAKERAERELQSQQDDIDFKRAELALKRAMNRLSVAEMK
# Protocol: (§1) Protein Characterization. […] Samples were measured with n = 4 to 9 replicates.
# (§2) Apparent dissociation constants are summarized in (E).
# ATeam3.10 R115A [3] = biological target: T3, ATeam3.10 R115A (Bacillus sp. PS3, UniProt A0A0M5MQR7, R115A); experiment: as above; format: binding; details: n = 4
# T3 construct: gene uncC; epsilon subunit flanked by mseCFP and mVenus; polyhistidine-tagged
# T3 sequence (A0A0M5MQR7 entry or part of it R115A): as the sequence (A0A0M5MQR7 entry or part of it R103E) above, with E103R, R115A counted along it
# Protocol: as §1, §2
# ATeam3.10 R115E [4] = biological target: T4, ATeam3.10 R115E (Bacillus sp. PS3, UniProt A0A0M5MQR7, R115E); experiment: as above; format: binding; details: n = 4
# T4 construct: gene uncC; epsilon subunit flanked by mseCFP and mVenus; polyhistidine-tagged
# T4 sequence (A0A0M5MQR7 entry or part of it R115E): as the sequence (A0A0M5MQR7 entry or part of it R103E) above, with E103R, R115E counted along it
# Protocol: as §1, §2
# ATeam3.10 R103E/R115A [5] = biological target: T5, ATeam3.10 R103E/R115A (Bacillus sp. PS3, UniProt A0A0M5MQR7, R103E/R115A); experiment: as above; format: binding; details: n = 4
# T5 construct: gene uncC; epsilon subunit flanked by mseCFP and mVenus; polyhistidine-tagged
# T5 sequence (A0A0M5MQR7 entry or part of it R103E/R115A): as the sequence (A0A0M5MQR7 entry or part of it R103E) above, with R115A counted along it
# Protocol: as §1, §2
# ATeam3.10 R103A/R115E [6] = biological target: T6, ATeam3.10 R103A/R115E (Bacillus sp. PS3, UniProt A0A0M5MQR7, R103A/R115E); experiment: as above; format: binding; details: n = 4
# T6 construct: gene uncC; epsilon subunit flanked by mseCFP and mVenus; polyhistidine-tagged
# T6 sequence (A0A0M5MQR7 entry or part of it R103A/R115E): as the sequence (A0A0M5MQR7 entry or part of it R103E) above, with E103A, R115E counted along it
# Protocol: as §1, §2
# ATeam3.10 (WT) [7] = biological target: T7, ATeam3.10 (WT) (Bacillus sp. PS3, UniProt A0A0M5MQR7); experiment: as above; format: binding; details: n = 4; read-out: ADP Affinity Kapp
# T7 construct: gene uncC; epsilon subunit flanked by mseCFP and mVenus; polyhistidine-tagged, expressed in E. coli BL21(DE3)
# T7 sequence (A0A0M5MQR7 1-133): as the sequence (A0A0M5MQR7 entry or part of it R103E) above, with E103R counted along it
# Protocol: as §1, §2
# ATeam3.10 R103A/R115A [8] = biological target: T8, ATeam3.10 R103A/R115A (Bacillus sp. PS3, UniProt A0A0M5MQR7, R103A/R115A); experiment: as above; format: binding; details: n = 4
# T8 construct: gene uncC; epsilon subunit flanked by mseCFP and mVenus; polyhistidine-tagged
# T8 sequence (A0A0M5MQR7 entry or part of it R103A/R115A): as the sequence (A0A0M5MQR7 entry or part of it R103E) above, with E103A, R115A counted along it
# Protocol: as §1, §2
# ATeam3.10 R103A [9] = biological target: T9, ATeam3.10 R103A (Bacillus sp. PS3, UniProt A0A0M5MQR7, R103A); experiment: as above; format: binding; details: n = 4
# T9 construct: gene uncC; epsilon subunit flanked by mseCFP and mVenus; polyhistidine-tagged
# T9 sequence (A0A0M5MQR7 entry or part of it R103A): as the sequence (A0A0M5MQR7 entry or part of it R103E) above, with E103A counted along it
# Protocol: as §1, §2
# ATeam3.10 R103E/R115E [10] = biological target: T1, ATeam3.10 R103E/R115E; experiment: Steady-state FRET ratio ATP dose response of 0.125 uM purified ATeam3.10 sensor at room temperature in 50 mM MOPS-KOH pH 7.3, 50 mM KCl, 0.5 mM free Mg2+, 0.05% Triton-X100 (4 to 9 replicates).; format: binding; parameters: gene uncC; epsilon subunit flanked by mseCFP and mVenus; polyhistidine-tagged; details: SD, n = 4; read-out: ATP Affinity Kapp
# Protocol: as §1
# (§3) We measured the ATP dose–response curves for all combinations of single and double mutants consisting of R-to-A charge neutralization or R-to-E charge reversal (Table 1, Figure 2). […] The difference between our observations likely reflects the sensitivity of the ε subunit to the label used. Kato-Yamada used a relatively small Cy3 label with a cysteine mutant (Q107C) of the ε subunit, whereas the ε subunit is fused to two large fluorescent proteins in ATeam3.10. Despite this difference, the increase in affinity could still be of particular use for developing an ATeam-based sensor to detect the low levels of extracellular ATP [2, 3, 11, 13, 25].
# (§4) Figure 2 ATeam3.10 R103 and R115 single and double mutants tune ATP affinity. ATP dose responses were measured using purified protein in solution. […] Apparent dissociation constants are summarized in (E).
# ATeam1.03 (WT) = biological target: T10, ATeam1.03 (WT) (Bacillus subtilis, UniProt P37812); experiment: Steady-state FRET ratio ATP dose response of 0.125 uM purified ATeam1.03 or ATeam1.03YEMK sensor at room temperature in 50 mM MOPS-KOH pH 7.3, 50 mM KCl, 0.5 mM free Mg2+, 0.05% Triton-X100 (4 to 9 replicates).; format: binding; details: SD, n = 4; read-out: ATP Affinity Kapp (ATeam1.03 and ATeam1.03YEMK)
# T10 construct: gene atpC; epsilon subunit flanked by mseCFP and mVenus; polyhistidine-tagged, expressed in E. coli BL21(DE3)
# T10 sequence (P37812 whole entry): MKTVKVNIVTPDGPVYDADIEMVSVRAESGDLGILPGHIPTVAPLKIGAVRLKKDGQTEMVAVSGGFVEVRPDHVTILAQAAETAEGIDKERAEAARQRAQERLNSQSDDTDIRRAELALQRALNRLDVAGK
# Protocol: as §1
# (§5) Figure 4 All ATeam1.03 R103 and R115 single and double mutants cause loss of ATP affinity. ATP dose responses were measured using purified protein in solution. […] (A) Example fluorescence emission spectra for (A) wildtype ATeam1.03 and (B) the non-binding R103A/R115A double mutant.
# (§6) Figure 5 ATeam1.03YEMK R103 and R115 single and double mutants tune ATP affinity. ATP dose responses were measured using purified protein in solution. […] (A) Example fluorescence emission spectra for (A) wildtype ATeam1.03YEMK, (B) the R103A/R115A double mutant, and (C) the R103A/R115E double mutant. ATP dose response curves for (D) single and (E) double mutants. Apparent dissociation constants are summarized in (F).
# [11] = biological target: T11, ATeam1.03YEMK R103E/R115A; experiment: as above; format: binding; details: SD, n = 4; read-out: ATP Affinity Kapp (ATeam1.03 and ATeam1.03YEMK)
# T11 construct: YEMK epsilon subunit flanked by mseCFP and mVenus; polyhistidine-tagged
# Protocol: as §1, §5, §6
# [12] = biological target: T12, ATeam1.03YEMK R103E/R115E; experiment: as above; format: binding; details: SD, n = 4; read-out: ATP Affinity Kapp (ATeam1.03 and ATeam1.03YEMK)
# T12 construct: YEMK epsilon subunit flanked by mseCFP and mVenus; polyhistidine-tagged
# Protocol: as §1, §5, §6
# ATeam1.03YEMK R115A = biological target: T13, ATeam1.03YEMK R115A (Bacillus subtilis, UniProt P37812, G131E/INS132K/K132M/M60Y/R115A); experiment: as above; format: binding; details: SD, n = 4; read-out: ATP Affinity Kapp (ATeam1.03 and ATeam1.03YEMK)
# T13 construct: gene atpC; YEMK epsilon subunit flanked by mseCFP and mVenus; polyhistidine-tagged
# T13 sequence (P37812 whole entry, stated change not applied): as the sequence (P37812 whole entry) above
# Protocol: as §1, §5, §6
# [13] = biological target: T14, ATeam1.03YEMK R103A/R115E; experiment: as above; format: binding; details: SD, n = 4; read-out: ATP Affinity Kapp (ATeam1.03 and ATeam1.03YEMK)
# T14 construct: YEMK epsilon subunit flanked by mseCFP and mVenus; polyhistidine-tagged
# Protocol: as §1, §5, §6
# ATeam1.03YEMK (WT) = biological target: T15, ATeam1.03YEMK (WT) (Bacillus subtilis, UniProt P37812, G131E/INS132K/K132M/M60Y); experiment: as above; format: binding; details: SD, n = 4; read-out: ATP Affinity Kapp (ATeam1.03 and ATeam1.03YEMK)
# T15 construct: gene atpC; epsilon subunit with four interface residues exchanged to match Bacillus sp; PS3, flanked by mseCFP and mVenus; polyhistidine-tagged
# T15 sequence (P37812 whole entry, stated change not applied): as the sequence (P37812 whole entry) above
# Protocol: as §1, §5, §6
# ATeam1.03YEMK R115E = biological target: T16, ATeam1.03YEMK R115E (Bacillus subtilis, UniProt P37812, G131E/INS132K/K132M/M60Y/R115E); experiment: as above; format: binding; details: SD, n = 4; read-out: ATP Affinity Kapp (ATeam1.03 and ATeam1.03YEMK)
# T16 construct: gene atpC; YEMK epsilon subunit flanked by mseCFP and mVenus; polyhistidine-tagged
# T16 sequence (P37812 whole entry, stated change not applied): as the sequence (P37812 whole entry) above
# Protocol: as §1, §5, §6
# ATeam3.10 R103E [14] = biological target: T2, ATeam3.10 R103E; experiment: Steady-state FRET ratio ATP dose response of 0.125 uM purified ATeam3.10 sensor at room temperature in 50 mM MOPS-KOH pH 7.3, 50 mM KCl, 0.5 mM free Mg2+, 0.05% Triton-X100 (4 to 9 replicates).; format: binding; details: SD, n = 4; read-out: ATP Affinity Kapp
# Protocol: as §1, §3, §4
# ATeam3.10 R115A [15] = biological target: T3, ATeam3.10 R115A; experiment: as above; format: binding; details: SD, n = 4; read-out: ATP Affinity Kapp
# Protocol: as §1, §3, §4
# ATeam3.10 R115E [16] = biological target: T4, ATeam3.10 R115E; experiment: as above; format: binding; details: SD, n = 4; read-out: ATP Affinity Kapp
# Protocol: as §1, §3, §4
# ATeam3.10 R103E/R115A [17] = biological target: T5, ATeam3.10 R103E/R115A; experiment: as above; format: binding; details: SD, n = 4; read-out: ATP Affinity Kapp
# Protocol: as §1, §3, §4
# ATeam3.10 R103A/R115E [18] = biological target: T6, ATeam3.10 R103A/R115E; experiment: as above; format: binding; details: SD, n = 4; read-out: ATP Affinity Kapp
# Protocol: as §1, §3, §4
# ATeam3.10 (WT) [19] = biological target: T7, ATeam3.10 (WT); experiment: as above; format: binding; details: SD, n = 4; read-out: ATP Affinity Kapp
# Protocol: as §1, §3, §4
# ATeam3.10 R103A/R115A [20] = biological target: T8, ATeam3.10 R103A/R115A; experiment: as above; format: binding; details: SD, n = 4; read-out: ATP Affinity Kapp
# Protocol: as §1, §3, §4
# ATeam3.10 R103A [21] = biological target: T9, ATeam3.10 R103A; experiment: as above; format: binding; details: SD, n = 4; read-out: ATP Affinity Kapp
# Protocol: as §1, §3, §4
# HEK293 cells = experiment: Live-cell imaging of metabolic inhibition (sensitized FRET emission ratio); format: cell-based
# Protocol: Microscopy. HEK293 cells were cultured in low-glucose Dulbecco’s modified Eagle’s medium supplemented with 10% cosmic calf serum (Gibco, Thermo Fisher Scientific, Waltham, MA, USA). For imaging studies, cells were plated on 18 mm #1.5 coverslips and transfected with Effectene (Qiagen, Germantown, MD, USA) or by the calcium phosphate method. Prior to imaging, cells were equilibrated for at least 20 min at room temperature in imaging solution (15 mM HEPES, pH 7.3, 1.25 mM NaH2PO4, 130 mM NaCl, 3 mM KCl, 2 mM CaCl2, 1 mM MgCl2, 3 mM NaHCO3) supplemented with a glucose concentration dependent on the specific experiment. Live-cell microscopy was carried out at room temperature on an Olympus IX83 inverted fluorescence microscope with a 20X/0.75 NA air objective illuminated by a Lumencor SpectraX light engine and imaged with an Andor Zyla 4.2 sCMOS camera. An ECFP/EYFP/mCherry multiband beamsplitter (Chroma 69008bs) was used with bandpass excitation and emission filters for each channel: cyan 438/29 nm and 470/24 nm; yellow 510/10 nm and 540/30 nm; sensitized FRET 438/29 nm and 540/30 nm; red 575/25 nm and 631/28 nm. Andor iQ3 software was used for image acquisition, and ImageJ/FIJI was used for image analysis. […] Cell masks were created using a threshold of two times the background and applied to background-subtracted images. […]
# T1 sequence (A0A0M5MQR7 entry or part of it R103E/R115E): as the sequence (A0A0M5MQR7 entry or part of it R103E) above, with R115E counted along it
structure (smiles),measurement,setting,value
"Nc1ncnc2c1ncn2[C@@H]1O[C@H](COP(=O)(O)OP(=O)(O)O)[C@@H](O)[C@H]1O [ADP, Adenosine diphosphate]",Kd,ATeam3.10 R103E/R115E [1],51 ± 6 µM
same,Kd,ATeam3.10 R103E [2],68 ± 3 µM
same,Kd,ATeam3.10 R115A [3],74 ± 7 µM
same,Kd,ATeam3.10 R115E [4],29 ± 2 µM
same,Kd,ATeam3.10 R103E/R115A [5],40 ± 2 µM
same,Kd,ATeam3.10 R103A/R115E [6],17 ± 1 µM
same,Kd,ATeam3.10 (WT) [7],130 ± 10 µM
same,Kd,ATeam3.10 R103A/R115A [8],32 ± 5 µM
same,Kd,ATeam3.10 R103A [9],82 ± 6 µM
"Nc1ncnc2c1ncn2[C@@H]1O[C@H](COP(=O)(O)OP(=O)(O)OP(=O)(O)O)[C@@H](O)[C@H]1O [ATP, Adenosine triphosphate]",Kd,ATeam3.10 R103E/R115E [10],0.8 µM
same,Kd,ATeam1.03 (WT),1000 µM
same,Kd,[11],1900 µM
same,Kd,[12],2200 µM
same,Kd,ATeam1.03YEMK R115A,1800 µM
same,Kd,[13],1900 µM
same,Kd,ATeam1.03YEMK (WT),200 µM
same,Kd,ATeam1.03YEMK R115E,700 µM
same,Kd,ATeam3.10 R103E [14],0.6 µM
same,Kd,ATeam3.10 R115A [15],0.6 µM
same,Kd,ATeam3.10 R115E [16],0.3 µM
same,Kd,ATeam3.10 R103E/R115A [17],0.7 µM
same,Kd,ATeam3.10 R103A/R115E [18],0.2 µM
same,Kd,ATeam3.10 (WT) [19],0.8 µM
same,Kd,ATeam3.10 R103A/R115A [20],0.2 µM
same,Kd,ATeam3.10 R103A [21],0.8 µM
"O=CC[C@@H](O)[C@H](O)[C@H](O)CO [DG, 2-deoxyglucose]",effect on cytosolic ATP,"HEK293 cells; HEK293, 10 mM glucose",did not cause a drastic loss of ATP
same,effect on cytosolic ATP,"HEK293 cells; HEK293, absence of glucose",did cause ATP depletion
